Measured values reported in US4181710A, “Rumen-stable pellets” (Eastman Kodak Company, priority 1978, dated 1980).
In brackets after ≈: the same amount, converted by molar mass.

Assay: Solubility of amino acids in water
Assay type: physicochemical
Conditions: at 25° C.

## CSCCC(N)C(=O)O (racemic) [DL - Methionine]
  solubility: 40 mg/mL (≈ 268 mM)

## CC(N)C(=O)O (racemic) [DL - Alanine]
  solubility: 167 mg/mL (≈ 1870 mM)
